In patent US20240390285A1, “HIGH-DOSE COMPRESSIBLE DOSAGE FORMS MANUFACTURED BY SIMULTANEOUS MELT-COATING AND MELT-GRANULATION OF ACTIVE PHARMACEUTICAL INGREDIENTS” (Rutgers, The State University of New Jersey, priority 2021, published 2024):
Values joined by “and” are separate entries in the source; they are usually repeats but may differ in a detail not shown here. Identical values can stand only once. Like-named read-outs stand apart in the source and are kept apart here.

Columns and labels:
[1] = cited from earlier work
[2] = cited from earlier work; remark: listed apart in the source
[3] = Granule tabletability, […] compactor simulator; assay type: physicochemical; details: 600 mg darunavir, 12 mm
Experimental: This provided an assessment of granule tabletability using a […] compactor simulator, producing 12 mm flat cylindrical tablets having a thickness of approximately 4.6 mm.
The processing parameters for the granules in table 8 were: 0.4 kg/h throughput, 300 rpm screw speed, 60° C. processing temperature.
The granules were blended with 1% of MgSt and formed into tablets using […] tooling.

[4] = Percent loss-on-drying (LOD); assay type: physicochemical
[5] = tablet 96% darunavir + 1% MgSt + 3% CMC-Na, avg. pre-compression force 1.54-1.84 kN
[6] = tablet 99% darunavir + 1% MgSt, avg. pre-compression force 1.67-1.80 kN
[7] = tablet 99% darunavir + 1% MgSt, avg. pre-compression force 9.59-10.16 kN

| Structure (SMILES) | dissociation constant, pKa [1] | solubility ([2]; pH of 2.0-5.5) | solubility ([2]; pH of 5.5-6.1) | Avg. Crushing Force/Hardness [3, 5] [N] | Tablet density [3, 5] [g/mL] | Tensile Strength [3, 5] [MPa] | Avg. Crushing Force/Hardness [3, 6] [N] | Tablet density [3, 6] [g/mL] | Tensile Strength [3, 6] [MPa] | Avg. Crushing Force/Hardness [3, 7] [N] | Tablet density [3, 7] [g/mL] | Tensile Strength [3, 7] [MPa] | percent loss-on-drying, Avg. ([4]; average of 3 samples) [%] | percent loss-on-drying (weight loss due to moisture evaporation) ([4]; individual Samples 1-3, listed as Pure Darunavir) |
| --- | --- | --- | --- | --- | --- | --- | --- | --- | --- | --- | --- | --- | --- | --- |
| NC(=O)c1nc(F)c[nH]c1=O [favipiravir, 6-fluoro-3-oxo-3,4-dihydropyrazine-2-carboxamide] | 5.1 | only slightly soluble | sparingly soluble | – | – | – | – | – | – | – | – | – | – | – |
| CC(C)CN(C[C@@H](O)[C@H](Cc1ccccc1)NC(=O)O[C@H]1CO[C@H]2OCC[C@H]21)S(=O)(=O)c1ccc(N)cc1 [darunavir, Darunavir] | – | – | – | 65.3 | 1.16 | 0.76 | 42.9 | 1.14 | 0.49 | 36.8 | 1.15 | 0.42 | 4.42 | 4.36% and 4.28% and 4.63% |
